In the NIST ThermoML archive (doi:10.1016/j.jct.2011.10.012):
Values joined by “and” are separate entries in the source; they are usually repeats but may differ in a detail not shown here. Equal values may be shown once. Numbers after ± are expanded uncertainties.

Settings: for viscosity: 101.33 kPa, Cone and plate viscometry; for viscosity / mass density: Liquid; for mass density: Vibrating tube method; for surface tension liquid-gas: Wilhelmy plate

CCCCCCCCCCCCCC[P+](CCCCCC)(CCCCCC)CCCCCC.FC(F)(F)C(F)(F)[P-](F)(F)(F)(C(F)(F)C(F)(F)F)C(F)(F)C(F)(F)F
Settings	surface tension liquid-gas [mN/m]	viscosity
283.09 K	–	975.8 ± 67 mPa·s and 976.8 ± 67 mPa·s
283.1 K	–	991.3 ± 68 mPa·s and 992.8 ± 69 mPa·s and 989.8 ± 68 mPa·s
288.13 K	–	697.9 ± 45 mPa·s [middle of 4 runs]
293.07 K	–	504.6 ± 30 mPa·s [middle of 5 runs]
298.15 K	–	335.9 ± 19 mPa·s and 336.5 ± 19 mPa·s
298.51 K	28.99 ± 0.41	–
303.15 K	–	256.1 ± 13 mPa·s [middle of 5 runs]
305.16 K	28.68 ± 0.41	–
308.15 K	–	196 ± 9.5 mPa·s [middle of 6 runs]
309.15 K	28.44 ± 0.41	–
313.15 K	–	151.2 ± 7 mPa·s [middle of 8 runs]
313.65 K	28.14 ± 0.41	–
318.15 K	–	118.8 ± 5.2 mPa·s [middle of 8 runs]
319.7 K	27.8 ± 0.41	–
323.15 K	–	96.4 ± 4.1 mPa·s [middle of 15 runs]
325.35 K	27.58 ± 0.41	–
328.15 K	–	79.6 ± 3.3 mPa·s [middle of 11 runs]
330.62 K	27.28 ± 0.41	–
333.15 K	–	65 ± 2.7 mPa·s [middle of 13 runs]
337.9 K	26.85 ± 0.41	–
338.15 K	–	54 ± 2.2 mPa·s [middle of 13 runs]
343.15 K	–	44.3 ± 1.8 mPa·s [middle of 9 runs]
343.29 K	26.57 ± 0.41	–
348.15 K	–	37.5 ± 1.5 mPa·s [middle of 9 runs]
353.15 K	–	32.1 ± 1.3 mPa·s [middle of 8 runs]
358.15 K	–	27.9 ± 1.1 mPa·s and 28 ± 1.1 mPa·s and 28.1 ± 1.1 mPa·s
358.17 K	–	28.2 ± 1.1 mPa·s and 28.1 ± 1.1 mPa·s and 28 ± 1.1 mPa·s
363.17 K	–	24.5 ± 1 mPa·s and 24.4 ± 1 mPa·s
363.18 K	–	24.6 ± 1 mPa·s and 24.5 ± 1 mPa·s
363.2 K	–	24.6 ± 1 mPa·s and 24.5 ± 1 mPa·s

mass density [kg/m3]
Settings	100 kPa	2000 kPa	3000 kPa	5000 kPa	10000 kPa	15000 kPa	20000 kPa	25000 kPa
293.15 K	1185.6 ± 2	1187 ± 2	1187.7 ± 2	1189.2 ± 2	1192.6 ± 2	1196.1 ± 2	1199.4 ± 2	1202.6 ± 2
298.15 K	1181.8 ± 2	1183.2 ± 2	1183.9 ± 2	1185.4 ± 2	1189 ± 2	1192.5 ± 2	1195.8 ± 2	1199.1 ± 2
303.15 K	1177.9 ± 2	1179.4 ± 2	1180.1 ± 2	1181.6 ± 2	1185.3 ± 2	1188.9 ± 2	1192.3 ± 2	1195.6 ± 2
308.15 K	1174 ± 2	1175.5 ± 2	1176.3 ± 2	1177.8 ± 2	1181.5 ± 2	1185.2 ± 2	1188.7 ± 2	1192.1 ± 2
313.15 K	1170.1 ± 2	1171.6 ± 2	1172.4 ± 2	1174 ± 2	1177.8 ± 2	1181.5 ± 2	1185.1 ± 2	1188.6 ± 2
318.15 K	1166.2 ± 2	1167.7 ± 2	1168.5 ± 2	1170.2 ± 2	1174.1 ± 2	1177.8 ± 2	1181.5 ± 2	1185 ± 2
323.15 K	1162.3 ± 2	1163.8 ± 2	1164.6 ± 2	1166.3 ± 2	1170.3 ± 2	1174.1 ± 2	1177.8 ± 2	1181.4 ± 2
328.15 K	1158.3 ± 2	1159.9 ± 2	1160.7 ± 2	1162.4 ± 2	1166.5 ± 2	1170.4 ± 2	1174.2 ± 2	1177.8 ± 2
333.15 K	1154.4 ± 2	1155.9 ± 2	1156.8 ± 2	1158.5 ± 2	1162.7 ± 2	1166.7 ± 2	1170.5 ± 2	1174.2 ± 2
338.15 K	1150.4 ± 2	1152 ± 2	1152.9 ± 2	1154.6 ± 2	1158.9 ± 2	1162.9 ± 2	1166.8 ± 2	1170.5 ± 2
343.15 K	1146.4 ± 2	1148 ± 2	1148.9 ± 2	1150.7 ± 2	1155 ± 2	1159.1 ± 2	1163.1 ± 2	1166.9 ± 2
